# Results from patent US10526316B2, “Quinoxaline and pyridopyrazine derivatives as PI3Kβ inhibitors” (Janssen Pharmaceutica NV, priority 2015, dated 2020).
# Where two headings read alike, the source gives them in different places.
# Assays:
# PI3Kβ = molecular target: T1, PI3Kβ (Homo sapiens, UniProt P42338); test: Enzyme binding assay (KINOMEscan, DiscoveRx); conditions: PIK3Cβ_h, read-out: Kd PIK3Cβ_h
# T1 construct: purchased DiscoveRx Corporation, San Diego (contract service, KINOMEscan)
# Method in brief: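 Values are Kd in nM, the binding constant of each inhibitor for the kinase, obtained from a KINOMEscan enzyme binding assay.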
# PI3Kδ = molecular target: T2, PI3Kδ (Homo sapiens, UniProt O00329); test: Enzyme binding assay (KINOMEscan, DiscoveRx); conditions: PIK3Cδ_h
# T2 construct: purchased DiscoveRx Corporation, San Diego (contract service, KINOMEscan)
# T2 sequence (O00329 1-1044): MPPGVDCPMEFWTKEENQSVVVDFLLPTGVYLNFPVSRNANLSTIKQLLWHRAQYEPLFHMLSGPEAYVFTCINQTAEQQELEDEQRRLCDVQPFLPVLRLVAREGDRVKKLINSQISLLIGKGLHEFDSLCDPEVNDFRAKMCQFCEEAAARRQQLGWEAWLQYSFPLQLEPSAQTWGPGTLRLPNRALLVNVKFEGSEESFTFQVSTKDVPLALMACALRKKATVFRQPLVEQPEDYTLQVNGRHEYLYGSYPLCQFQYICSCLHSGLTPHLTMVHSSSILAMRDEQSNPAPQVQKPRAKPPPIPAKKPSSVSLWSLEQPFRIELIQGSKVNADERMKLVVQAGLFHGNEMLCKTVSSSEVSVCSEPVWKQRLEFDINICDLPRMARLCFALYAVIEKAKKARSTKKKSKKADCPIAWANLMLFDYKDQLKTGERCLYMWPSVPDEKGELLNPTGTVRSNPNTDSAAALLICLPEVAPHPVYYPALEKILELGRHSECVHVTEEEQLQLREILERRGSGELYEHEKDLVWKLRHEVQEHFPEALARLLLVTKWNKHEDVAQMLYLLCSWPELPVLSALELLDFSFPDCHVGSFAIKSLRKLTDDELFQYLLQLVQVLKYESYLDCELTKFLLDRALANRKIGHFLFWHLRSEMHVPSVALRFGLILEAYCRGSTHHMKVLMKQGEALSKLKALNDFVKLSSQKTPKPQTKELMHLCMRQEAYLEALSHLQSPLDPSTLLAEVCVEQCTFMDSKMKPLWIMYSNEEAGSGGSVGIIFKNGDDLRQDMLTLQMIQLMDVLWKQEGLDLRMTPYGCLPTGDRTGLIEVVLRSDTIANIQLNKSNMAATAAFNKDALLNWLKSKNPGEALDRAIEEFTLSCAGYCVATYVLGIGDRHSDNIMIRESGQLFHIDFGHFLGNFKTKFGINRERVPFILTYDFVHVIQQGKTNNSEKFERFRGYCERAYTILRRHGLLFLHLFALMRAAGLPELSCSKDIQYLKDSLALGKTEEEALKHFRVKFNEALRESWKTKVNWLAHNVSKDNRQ
# Method in brief: (§1)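 Affinity for each kinase was determined by KINOMEscan profiling.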
# kinase enzymes [1] = molecular target: T3, kinase enzymes (Homo sapiens, UniProt P42336); test: Enzyme binding assay (KINOMEscan, DiscoveRx), further kinases of Table A; conditions: PIK3Cα_h
# T3 construct: purchased DiscoveRx Corporation, San Diego (contract service, KINOMEscan)
# Method in brief: as §1
# kinase enzymes [2] = molecular target: T4, kinase enzymes (Homo sapiens, UniProt P42345); test: as above; conditions: MTOR_h
# T4 construct: purchased DiscoveRx Corporation, San Diego (contract service, KINOMEscan)
# Method in brief: as §1
# kinase enzymes [3] = molecular target: T5, kinase enzymes (Homo sapiens, UniProt P48736); test: as above; conditions: PIK3Cγ_h
# T5 construct: purchased DiscoveRx Corporation, San Diego (contract service, KINOMEscan)
# Method in brief: as §1
# [4] = tested on: Akt phosphorylated at Ser473 in PC-3 cells; test: Cellular assay: phosphorylation of Akt at Ser473 in PC-3 cells (MSD ELISA); assay type: cell-based; conditions: PC-3 cells, 60 min compound incubation, MSD ELISA, read-out: IC50 pAkt_S473
# Method in brief: (§2)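 PC-3 cells were exposed to compound or 0.3% DMSO for 60 min at 37° C, 5% CO2, then lysed in ice-cold buffer. Phospho-Akt was captured on site-specific antibody-coated plates and detected with Sulfo-tag anti-total Akt by electrochemiluminescence. IC50 values came from five-concentration response curves.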
# [5] = tested on: Akt phosphorylated at Thr308 in PC-3 cells; test: Cellular assay: phosphorylation of Akt at Thr308 in PC-3 cells (MSD ELISA); assay type: cell-based; conditions: PC-3 cells, 60 min compound incubation, MSD ELISA, read-out: IC50 pAkt_Thr308
# Method in brief: as §2
# T5 sequence (P48736 whole entry): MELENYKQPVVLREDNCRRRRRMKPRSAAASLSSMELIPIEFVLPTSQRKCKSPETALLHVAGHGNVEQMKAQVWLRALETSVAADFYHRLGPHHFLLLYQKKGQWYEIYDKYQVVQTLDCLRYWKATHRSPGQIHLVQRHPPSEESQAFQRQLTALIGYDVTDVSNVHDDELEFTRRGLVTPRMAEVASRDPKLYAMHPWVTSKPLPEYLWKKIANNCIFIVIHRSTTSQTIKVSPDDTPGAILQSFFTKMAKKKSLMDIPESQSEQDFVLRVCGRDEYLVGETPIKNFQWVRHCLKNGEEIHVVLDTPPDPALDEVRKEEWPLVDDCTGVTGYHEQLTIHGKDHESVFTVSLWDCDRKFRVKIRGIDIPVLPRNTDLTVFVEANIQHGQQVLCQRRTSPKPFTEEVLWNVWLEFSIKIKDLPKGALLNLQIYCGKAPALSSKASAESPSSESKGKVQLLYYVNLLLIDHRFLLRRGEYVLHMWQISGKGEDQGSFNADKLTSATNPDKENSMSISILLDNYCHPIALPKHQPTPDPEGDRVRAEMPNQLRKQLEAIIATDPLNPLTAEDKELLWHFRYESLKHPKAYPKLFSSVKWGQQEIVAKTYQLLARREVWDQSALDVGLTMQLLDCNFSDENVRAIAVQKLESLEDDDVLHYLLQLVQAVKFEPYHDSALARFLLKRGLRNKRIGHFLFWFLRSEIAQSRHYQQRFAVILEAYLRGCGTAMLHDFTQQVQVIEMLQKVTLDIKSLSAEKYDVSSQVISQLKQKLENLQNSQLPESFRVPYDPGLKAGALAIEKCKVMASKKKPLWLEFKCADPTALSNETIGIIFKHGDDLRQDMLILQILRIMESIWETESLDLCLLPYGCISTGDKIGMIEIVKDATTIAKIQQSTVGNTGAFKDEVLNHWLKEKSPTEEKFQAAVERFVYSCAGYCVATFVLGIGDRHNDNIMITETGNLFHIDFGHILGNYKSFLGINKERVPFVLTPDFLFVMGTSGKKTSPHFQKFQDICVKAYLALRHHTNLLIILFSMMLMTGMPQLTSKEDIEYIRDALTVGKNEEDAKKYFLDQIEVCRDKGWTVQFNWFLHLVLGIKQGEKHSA
# T3 sequence (P42336 whole entry): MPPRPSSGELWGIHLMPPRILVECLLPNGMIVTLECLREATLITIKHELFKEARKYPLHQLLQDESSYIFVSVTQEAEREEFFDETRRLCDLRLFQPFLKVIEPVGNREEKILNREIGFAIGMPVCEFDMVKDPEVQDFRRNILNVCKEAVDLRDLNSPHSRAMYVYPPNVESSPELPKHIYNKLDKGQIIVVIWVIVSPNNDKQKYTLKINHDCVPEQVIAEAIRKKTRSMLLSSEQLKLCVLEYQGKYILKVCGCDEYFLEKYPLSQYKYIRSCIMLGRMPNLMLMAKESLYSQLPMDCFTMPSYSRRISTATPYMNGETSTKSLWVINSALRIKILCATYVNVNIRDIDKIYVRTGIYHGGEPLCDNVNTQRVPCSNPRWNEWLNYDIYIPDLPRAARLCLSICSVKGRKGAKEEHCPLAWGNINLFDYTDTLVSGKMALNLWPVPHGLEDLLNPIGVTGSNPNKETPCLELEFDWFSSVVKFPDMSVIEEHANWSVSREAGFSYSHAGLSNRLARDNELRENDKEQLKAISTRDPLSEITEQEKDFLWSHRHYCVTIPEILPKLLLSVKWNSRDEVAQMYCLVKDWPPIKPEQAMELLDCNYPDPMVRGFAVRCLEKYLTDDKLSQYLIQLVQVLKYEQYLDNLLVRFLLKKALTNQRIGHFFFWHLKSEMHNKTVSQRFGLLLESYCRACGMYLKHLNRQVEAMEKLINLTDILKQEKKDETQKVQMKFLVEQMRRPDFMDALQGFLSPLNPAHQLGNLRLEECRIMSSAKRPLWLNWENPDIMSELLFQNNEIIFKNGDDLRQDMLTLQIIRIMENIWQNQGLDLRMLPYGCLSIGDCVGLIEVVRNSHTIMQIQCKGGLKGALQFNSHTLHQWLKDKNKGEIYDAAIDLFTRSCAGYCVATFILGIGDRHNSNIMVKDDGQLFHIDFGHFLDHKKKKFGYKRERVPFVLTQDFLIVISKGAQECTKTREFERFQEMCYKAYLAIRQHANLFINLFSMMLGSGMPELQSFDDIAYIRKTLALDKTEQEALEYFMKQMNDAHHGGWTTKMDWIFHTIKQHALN
# T1 sequence (P42338 whole entry): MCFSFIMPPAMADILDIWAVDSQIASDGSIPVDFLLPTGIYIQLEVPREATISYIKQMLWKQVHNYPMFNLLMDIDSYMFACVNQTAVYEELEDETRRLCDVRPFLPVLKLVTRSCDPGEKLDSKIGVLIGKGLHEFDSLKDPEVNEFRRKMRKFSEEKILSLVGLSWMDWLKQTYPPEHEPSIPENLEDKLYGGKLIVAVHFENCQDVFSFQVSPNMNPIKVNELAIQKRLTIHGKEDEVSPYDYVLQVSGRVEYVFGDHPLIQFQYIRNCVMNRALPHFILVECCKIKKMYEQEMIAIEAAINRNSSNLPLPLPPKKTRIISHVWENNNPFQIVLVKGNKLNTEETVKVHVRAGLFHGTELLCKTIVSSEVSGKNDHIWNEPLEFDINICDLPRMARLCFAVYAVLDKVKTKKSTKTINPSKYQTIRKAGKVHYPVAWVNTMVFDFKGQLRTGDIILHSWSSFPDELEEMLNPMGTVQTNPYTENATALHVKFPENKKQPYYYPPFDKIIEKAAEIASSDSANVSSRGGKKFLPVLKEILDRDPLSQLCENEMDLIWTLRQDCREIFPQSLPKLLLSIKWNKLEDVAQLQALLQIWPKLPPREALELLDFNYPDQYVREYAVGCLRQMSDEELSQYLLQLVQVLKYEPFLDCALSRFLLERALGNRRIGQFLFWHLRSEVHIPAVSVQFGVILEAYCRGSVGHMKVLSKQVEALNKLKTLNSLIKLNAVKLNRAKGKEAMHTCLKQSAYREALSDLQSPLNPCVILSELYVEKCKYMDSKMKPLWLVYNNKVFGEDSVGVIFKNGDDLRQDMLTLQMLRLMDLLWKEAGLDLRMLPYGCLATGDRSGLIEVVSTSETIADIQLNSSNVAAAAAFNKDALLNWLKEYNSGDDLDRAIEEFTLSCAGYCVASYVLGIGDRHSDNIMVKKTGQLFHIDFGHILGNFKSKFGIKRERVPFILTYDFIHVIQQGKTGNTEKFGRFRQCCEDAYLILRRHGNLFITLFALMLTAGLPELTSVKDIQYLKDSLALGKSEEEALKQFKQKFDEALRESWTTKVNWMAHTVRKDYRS
Structure (SMILES),Kd (PI3Kβ),Kd (PI3Kδ),Kd (kinase enzymes [1]),Kd (kinase enzymes [2]),Kd (kinase enzymes [3]),"IC50 ([4]; Homo sapiens, PC-3, 1 h)","IC50 ([5]; Homo sapiens, PC-3, 1 h)",melting point,IC50 [4],IC50 [5]
CC(Nc1cc(F)c(C(F)(F)F)c(F)c1)c1cc(C(=O)NCCO)cc2ncc(N3CCOCC3)nc12 (stereo not shown) [Compound 223],4790 nM,> 30200 nM,> 30200 nM,> 30200 nM,13800 nM,> 513 nM,> 513 nM,200 °C,–,–
CNCCN(C)C(=O)c1cc(C(C)Nc2cc(F)c(C(F)(F)F)c(F)c2)c2nc(N3CCOCC3)cnc2c1 (stereo not shown) [Compound 224],186 nM,4470 nM,27500 nM,> 30200 nM,> 30200 nM,468 nM,> 513 nM,163 °C,–,–
CC(C)NCCNC(=O)c1cc(C(C)Nc2cccc(F)c2)c2nc(N3CCOCC3)cnc2c1 (stereo not shown) [Compound 226],1 nM,275 nM,2570 nM,28800 nM,5620 nM,20 nM,13 nM,158 °C,–,–
O=C(NCCO)c1cc(NCc2cccc(F)c2)c2nc(N3CCOCC3)cnc2c1 [Compound 230],12 nM,759 nM,7080 nM,12000 nM,18200 nM,145 nM,141 nM,218 °C,–,–
CC(Nc1cc(F)cc(F)c1)c1cc(C(=O)N2CCNC(C(F)(F)F)C2)cc2ncc(N3CCOCC3)nc12 (stereo not shown) [Compound 237],1 nM,138 nM,288 nM,> 30200 nM,9330 nM,20 nM,11 nM,80 °C,–,–
CC(Nc1cc(F)cc(F)c1)c1cc(C(=O)NC2CN(CC(F)(F)F)C2)cc2ncc(N3CCOCC3)nc12 (stereo not shown) [Compound 238],8 nM,2210 nM,5010 nM,> 30200 nM,12300 nM,219 nM,157 nM,110 °C,–,–
O=Cc1cc(C2CCCN2c2cc(F)cc(F)c2)c2nc(N3CCOCC3)cnc2c1 (stereo not shown) [Compound 250],1 nM,219 nM,339 nM,14500 nM,955 nM,5 nM,6 nM,120 °C,–,–
CN(C)C(=O)c1cc(NCc2cc(F)cc(F)c2)c2nc(N3CCOCC3)cnc2c1 [Compound 278],8 nM,1740 nM,2090 nM,19500 nM,15800 nM,295 nM,178 nM,158 °C,–,–
CC(Nc1ccc(F)c(F)c1)c1cc(C(=O)NCCO)cc2ncc(N3CCOCC3)nc12 (stereo not shown) [Compound 279],5 nM,372 nM,5370 nM,19100 nM,6460 nM,145 nM,115 nM,77 °C,–,–
CC(Nc1ccc(F)c(F)c1)c1cc(C(=O)NCCCO)cc2ncc(N3CCOCC3)nc12 (stereo not shown) [Compound 280],6 nM,427 nM,5130 nM,> 30200 nM,11200 nM,~275 nM,158 nM,164 °C,–,–
CC(Nc1ccc(F)c(F)c1)c1cc(C(=O)NCCN(C)C)cc2ncc(N3CCOCC3)nc12 (stereo not shown) [Compound 281],0.3 nM,91 nM,3160 nM,> 30200 nM,3550 nM,15 nM,15 nM,80 °C,–,–

# Further lines, results first:
Kd (PI3Kβ),Kd (PI3Kδ),Kd (kinase enzymes [1]),Kd (kinase enzymes [2]),Kd (kinase enzymes [3]),"IC50 ([4]; Homo sapiens, PC-3, 1 h)","IC50 ([5]; Homo sapiens, PC-3, 1 h)",melting point,IC50 [4],IC50 [5],Structure (SMILES)
0.2 nM,68 nM,832 nM,23400 nM,1820 nM,7 nM,6 nM,100 °C,–,–,CNCCNC(=O)c1cc(C(C)Nc2cccc(F)c2)c2nc(N3CCOCC3)cnc2c1 (stereo not shown) [Compound 282]
13 nM,977 nM,2690 nM,> 30200 nM,26300 nM,151 nM,48 nM,80 °C,–,–,CC(Nc1ccc(F)c(F)c1)c1cc(C(=O)N2CCN3CCC[C@H]3C2)cc2ncc(N3CCOCC3)nc12 (stereo partly shown) [Compound 287]
16 nM,1700 nM,6610 nM,> 30200 nM,27500 nM,437 nM,234 nM,80 °C,–,–,CC(Nc1cc(F)c(F)c(F)c1)c1cc(C(=O)NCC(C)(C)O)cc2ncc(N3CCOCC3)nc12 (stereo not shown) [Compound 292]
309 nM,7760 nM,7240 nM,30900 nM,6310 nM,> 513 nM,> 513 nM,80 °C,–,–,Cc1ccc(NC(C)c2cc(C(=O)NCCO)cc3ncc(N4CCOCC4)nc23)cc1F (stereo not shown) [Compound 295]
43 nM,3240 nM,5370 nM,15100 nM,1510 nM,> 513 nM,427 nM,315 °C,–,–,CN(C)C(=O)c1cc(C(CO)N(C)c2cccc(F)c2)c2nc(N3CCOCC3)cnc2c1 (stereo not shown) [Compound 301]
5 nM,380 nM,1950 nM,> 30200 nM,15500 nM,76 nM,76 nM,80 °C,–,–,CC(Nc1ccc(F)c(F)c1)c1cc(C(=O)N2CCC[C@H](O)C2)cc2ncc(N3CCOCC3)nc12 (stereo partly shown) [Compound 302]
9 nM,457 nM,3550 nM,18600 nM,3890 nM,87 nM,79 nM,138 °C,–,–,CC(Nc1ccc(F)c(F)c1)c1cc(CO)cc2ncc(N3CCOCC3)nc12 (stereo not shown) [Compound 303]
324 nM,7240 nM,> 30200 nM,> 30200 nM,> 30200 nM,> 513 nM,> 513 nM,195 °C,–,–,Cc1c(F)cccc1CN(C)c1cc(C(=O)N2CC3(C2)CS(=O)(=O)C3)cc2ncc(N3CCOCC3)nc12 [Compound 308]
13 nM,708 nM,6170 nM,> 30200 nM,20900 nM,> 513 nM,> 513 nM,167 °C,–,–,O=C(NCCO)c1cc(NCc2cccc(F)c2C2CCNCC2)c2nc(N3CCOCC3)cnc2c1 [Compound 317]
0.3 nM,68 nM,2190 nM,> 30200 nM,6170 nM,–,–,80 °C,42 nM,26 nM,CC(Nc1ccc(F)c(F)c1)c1cc(C(=O)N(C)C2CCNC2)cc2ncc(N3CCOCC3)nc12 (stereo not shown) [Compound 322b]
1 nM,182 nM,3800 nM,> 30200 nM,3090 nM,–,–,130 °C,209 nM,100 nM,CC(Nc1ccc(F)c(F)c1)c1cc(C(=O)N(C)C2CCNC2)cc2ncc(N3CCOCC3)nc12 (stereo not shown) [Compound 323b]
37 nM,7410 nM,5250 nM,> 30200 nM,17400 nM,> 513 nM,148 nM,265 °C,–,–,O=C(NCCO)c1cc(CNc2cc(F)cc(F)c2)c2nc(N3CCOCC3)cnc2c1 [Compound 333]
